TGI data for ten molecules are collected here from PubChem BioAssay (NCI).

Some test systems named below: OVCAR-5 ovarian; MOLT-4 leukemia; OVCAR-3 ovarian; UACC-62 melanoma; SR leukemia; HCT-15 colon; SN12C renal; SW-620 colon; SK-MEL-2 melanoma; OVCAR-4 ovarian; HCC-2998 colon; CAKI-1 renal; RXF 393 renal; SNB-75 CNS; MDA-MB-435; MDA-MB-231 breast; MCF7 breast.
Test in all cases: growth of human tumour cells (NCI), 48 h

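Step 1: Grow cells in 96-well plates. Step 2: Expose to compound for 48 hours at 5 concentrations. Step 3: Interpolate endpoints linearly; if unreached, use highest concentration. TGI: concentration producing complete growth inhibition.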

As for `CCOC(=O)/C(=C/c1ccc(C(=O)OC)cc1)N(CC)CC`, the TGI with OVCAR-5 ovarian was greater than 100 µM; with MOLT-4 leukemia, greater than 100 µM; with OVCAR-3 ovarian it was 60 µM; in the experiment with UACC-62 melanoma it was greater than 100 µM; in the experiment with SR leukemia, greater than 100 µM; in the experiment with HCT-15 colon it was greater than 100 µM. Besides, the TGI with SN12C renal, in the experiment with SW-620 colon, with SK-MEL-2 melanoma, with OVCAR-4 ovarian, in the experiment on HCC-2998 colon and with CAKI-1 renal was greater than 100 µM each time.

Take `COCN1COCN=C1NC#N`: the TGI in the experiment with OVCAR-5 ovarian, in the experiment on MOLT-4 leukemia, with OVCAR-3 ovarian, in the experiment on RXF 393 renal, in the experiment on UACC-62 melanoma and in the experiment on SR leukemia was greater than 100 µM each time. In addition, the TGI was greater than 100 µM in the experiment on HCT-15 colon; greater than 100 µM in the experiment with SN12C renal; 66.8 µM in the experiment on SW-620 colon; greater than 100 µM in the experiment on SK-MEL-2 melanoma; greater than 100 µM in the experiment with OVCAR-4 ovarian; greater than 100 µM in the experiment on HCC-2998 colon. Also, the TGI in the experiment on CAKI-1 renal and in the experiment with SNB-75 CNS was greater than 100 µM each time.

Turning to `O=C1CC(c2ccccc2)=Nc2ccccc2N1`, the TGI with OVCAR-5 ovarian, in the experiment on MOLT-4 leukemia, in the experiment on OVCAR-3 ovarian, in the experiment on RXF 393 renal, with UACC-62 melanoma and in the experiment with SR leukemia was greater than 100 µM throughout. Also, the TGI in the experiment on HCT-15 colon was greater than 100 µM; with SN12C renal, greater than 100 µM; in the experiment with SW-620 colon it was 51.8 µM; with SK-MEL-2 melanoma, greater than 100 µM; in the experiment with OVCAR-4 ovarian, greater than 100 µM; in the experiment on HCC-2998 colon it was greater than 100 µM. For the same molecule, the TGI in the experiment on CAKI-1 renal and in the experiment on SNB-75 CNS was greater than 100 µM in each case.

With `O=[N+]([O-])C(/C=N/Nc1ccccc1)/C=N/Nc1ccccc1`, the TGI with OVCAR-5 ovarian, in the experiment with MOLT-4 leukemia, in the experiment on OVCAR-3 ovarian, with RXF 393 renal, in the experiment with UACC-62 melanoma and in the experiment on HCT-15 colon was greater than 100 µM each time. For the same molecule, the TGI in the experiment with SN12C renal, in the experiment on SW-620 colon, in the experiment with SK-MEL-2 melanoma, in the experiment on OVCAR-4 ovarian, with HCC-2998 colon and in the experiment on CAKI-1 renal was greater than 100 µM throughout. This molecule yielded a TGI in the experiment on SNB-75 CNS greater than 100 µM.

In the case of `O=C(c1ccc(Cl)cc1)N(C(=S)N1CCN(c2ccccn2)CC1)C1CCCCC1`, the TGI in the experiment with OVCAR-5 ovarian was greater than 100 µM; in the experiment on MOLT-4 leukemia, 96.5 µM; with OVCAR-3 ovarian it was greater than 100 µM; in the experiment on RXF 393 renal it was greater than 100 µM; with UACC-62 melanoma it was greater than 100 µM; in the experiment on SR leukemia it was greater than 100 µM. Besides, the TGI in the experiment with HCT-15 colon, in the experiment with SN12C renal, with SW-620 colon, with SK-MEL-2 melanoma, in the experiment with OVCAR-4 ovarian and with CAKI-1 renal was greater than 100 µM throughout. The TGI in the experiment with SNB-75 CNS is greater than 100 µM.

In the case of `CCOC(=O)C(Cc1c[nH]c2cc([N+](=O)[O-])ccc12)NS(=O)(=O)c1ccc2ccccc2c1` (stereo not drawn), the TGI in the experiment with MOLT-4 leukemia is greater than 100 µM; in the experiment on OVCAR-3 ovarian, 31.5 µM; with RXF 393 renal it was 37.8 µM; in the experiment on UACC-62 melanoma, 31.3 µM; with SR leukemia it was 68.2 µM; in the experiment on HCT-15 colon it was 41.2 µM. In addition, the TGI in the experiment with SN12C renal came to 34.4 µM; in the experiment with SW-620 colon, 44.4 µM; in the experiment on SK-MEL-2 melanoma, 35.1 µM; in the experiment with OVCAR-4 ovarian, 28 µM; in the experiment with HCC-2998 colon it was 49.4 µM; with SNB-75 CNS, 50.4 µM.

For the molecule `O=C(O)c1ccc(C2=Cc3cc(Cl)ccc3OC2)cc1`, the TGI with OVCAR-5 ovarian, in the experiment on MOLT-4 leukemia, with OVCAR-3 ovarian, in the experiment with RXF 393 renal, with UACC-62 melanoma and in the experiment on SR leukemia was greater than 100 µM in each case. Also, the TGI in the experiment on HCT-15 colon, in the experiment on SN12C renal, in the experiment on SW-620 colon, in the experiment on SK-MEL-2 melanoma, with HCC-2998 colon and in the experiment on CAKI-1 renal was greater than 100 µM each time. Moreover, the TGI in the experiment on SNB-75 CNS is greater than 100 µM.

On to `COc1cc(OC)c2c3c(OC)cc(OC)c4c(=O)c(O)c(C[C@@H](C)O)c(c5c(C[C@@H](C)O)c(O)c(=O)c1c25)c43`, for which the TGI was greater than 100 µM in the experiment with OVCAR-5 ovarian; 39.4 µM with MOLT-4 leukemia; 9.4 µM in the experiment with OVCAR-3 ovarian; 73.1 µM in the experiment with RXF 393 renal; 32.1 µM in the experiment with MDA-MB-435; 25.3 µM in the experiment on MDA-MB-231 breast. Also, the TGI is 44.4 µM in the experiment with HCT-15 colon; 68.6 µM in the experiment with SN12C renal; 35.6 µM in the experiment with SW-620 colon; 68 µM in the experiment with SK-MEL-2 melanoma; greater than 100 µM with OVCAR-4 ovarian; 32 µM in the experiment on HCC-2998 colon. Besides, the TGI in the experiment on MCF7 breast worked out at 48.6 µM; with CAKI-1 renal, 53.2 µM; with SNB-75 CNS, 62.1 µM.

In the case of `NC1=NS(=O)(=O)Nc2nc(-c3ccccc3)[nH]c21`, the TGI in the experiment with OVCAR-5 ovarian, in the experiment on MOLT-4 leukemia, in the experiment on OVCAR-3 ovarian, in the experiment with RXF 393 renal, with UACC-62 melanoma and in the experiment on SR leukemia was greater than 100 µM each time. The TGI in the experiment with HCT-15 colon, in the experiment on SN12C renal, with SW-620 colon, with SK-MEL-2 melanoma, in the experiment with OVCAR-4 ovarian and in the experiment on HCC-2998 colon was greater than 100 µM in each case. Moreover, in the experiment with SNB-75 CNS, the TGI is greater than 100 µM.

On to `O=C1N2Cc3c4ccc5c3CN3C(=O)N6Cc7c(ccc(c7CN1C6(c1ccccc1)C23c1ccccc1)OCCOCCNCCOCCO4)OCCOCCNCCOCCO5` (stereo not drawn), for which the TGI in the experiment on OVCAR-5 ovarian, with MOLT-4 leukemia, in the experiment with OVCAR-3 ovarian, with RXF 393 renal, in the experiment with UACC-62 melanoma and with SR leukemia was greater than 100 µM each time. Besides, the TGI was 91.3 µM with HCT-15 colon; 89.1 µM with SN12C renal; 50.8 µM with SW-620 colon; greater than 100 µM with SK-MEL-2 melanoma; greater than 100 µM in the experiment on OVCAR-4 ovarian; greater than 100 µM in the experiment on HCC-2998 colon. In addition, the TGI with CAKI-1 renal and with SNB-75 CNS was greater than 100 µM throughout.
